The values below come from patent US20210063420A1, “Human Neural Organoid Platform for Detecting Drugs of Abuse Disorder Susceptibility and Therapeutic Countermeasure and Non-Addictive Pain Medication Development” (Rene Anand, priority 2019, published 2021).

SMILES strings stand for the structures.

The subject of this assay is human iPSC-derived brain organoids. Here is the method: All cpm data are normalized data and the reads are a direct representation of the abundance of the RNA for each gene.
Transcriptomic data from these neural organoids were obtained. […] Detailed data analysis using Gene Card and Pubmed data bases were performed.

As for `CN1CCCC1c1cccnc1` (stereo not drawn) [nicotine], under “chronic nicotine exposure of human iPSC-derived brain organoids”, the “expression of a set of genes for proteins involved in the development of midbrain dopaminergic neurons (VTA and SNpc)” value is “increases the expression”. In addition, where the note is “exposure for 4 weeks to nicotine at 50 nanomolar, 500 nanomolar and 1 micromolar in the growth media, identified responsive genes”, the “change in gene expression versus 0 (control)” value is given as “greater than 1.4 fold”. The “expression of a subset of genes (Nurr 1, Lmx1a, Lmx1b, Neurog2, OTX2, Nolz1, NDNF)” value (human neural organoids, preliminary data) is on record as “upregulated”.
